Laboratory results from patent publication US5521061A, “Enhancement of probe signal in nucleic acid-mediated in-situ hybridization studies” (Aprogenex, Inc., priority 1992, dated 1996).

Assays:
Hepg 2 cells = experiment: Slide in situ hybridization, DMSO plus one additional compound (Example 2), HYR probe; assay type: cell-based, human
Description: (§1) Slide in situ Cell Preparation and Hybridization Protocol
(§2) 1) Cells were suspended in a fixative (3 vol ethanol plus 1 vol methanol) and transferred to glass slides by centrifugation using a Cytospin apparatus.
(§3) 2) The assay solution (consisting of the hybridization cocktail HC alone or mixed with a compound or compounds being tested as an enhancer) with the DNA probe (25 ul) was placed over the cells and covered with a coverslip.
(§4) 3) The slide was heated at 90° C. for 5 minutes for DNA denaturation, then incubated at 46° C. for 30 minutes for hybridization.
(§5) 4) Cells were washed once with the wash solution #1, which was equilibrated at 42° C. Then cells were washed ten times with wash solution #2, which was equilibrated at 42° C.
5) Mounting solution (50% glycerol (v/v) in 1×PBS plus the nuclear stain Hoechst, (#33258; 1 ug/ml) was placed on the cells and covered with a coverslip.
6) The hybridization signal was observed under an Olympus BH10 microscope with fluorescent capabilities using a rhodamine derivative filters (excitation wavelength of 567 nm, emission wavelength of 584 nm).
The inclusion of DMSO in an in situ assay solution increased the permeation of the nucleic acid probes into the cells and gave hybridization signal in over 95% of the cells. In this Example, we show the effect of adding, in addition to DMSO, 10 percent (v/v) of an additional compound to the assay solution. The additional compounds added were: squalane (an aliphatic alkane), dodecyl alcohol (an alcohol), beta-cyclodextrin (a sugar), isopropyl palmitate (a fatty acid ester), 1,2, propanediol (an alcohol), pyrrolidinone (a lactam) and hexamethyldisiloxane (an organic silane).
In this Example, the hybridization cocktail consisted of nine volumes of HC-DMSO plus one volume of an additional compound. In the control sample, one volume of water was added instead of one volume of additional compound. As a result, in all samples, the concentration of DMSO in the cocktail was 9 percent (v/v).
The Slide In Situ Cell Preparation and Hybridization protocol was followed. The cells used were Hepg 2 cells. The probe used was an HYR probe specific for human Y chromosome α-satellite DNA repeated sequences; at its 5' end, via an Aminolink linker molecule, the probe was linked to a Texas Red moiety. A signal intensity of 4 was assigned to the slide in which the assay solution was HC plus 10% DMSO (control slide) and all other slides were rated 1, 2, 3 or 4 in comparison to the control slide, depending on whether the intensity was 1, 2, 3, or 4 times that of the control slide, respectively.
The results are an average of four independent experiments.

[1] = tested on: Human female white blood cells (karyotype XX); experiment: Signal enhancers in the mounting solution after in situ hybridization (Example 6), HXR probes, fluorescent microscope; assay type: cell-based; settings: not further described
[2] = tested on: Human female white blood cells (karyotype XX); experiment: as above; assay type: cell-based; settings: one volume compound plus 9 volumes mounting solution; rhodamine HXR probes; water control = 1
Description: After the in situ hybridization step, the cells were washed and then modified mounting solution was added and cells were observed under the microscope for fluorescence signal. Modified mounting solution was 9 volumes of mounting solution and one volume of additional compound, which was the compound being tested for its ability to be a signal enhancer. Mounting solution consisted of 0.1% 1,4 diphenylamine (antifade) in 50% glycerol (v/v), and nuclear stain Hoechst (#33258; 1 ug/ml).
Human female white blood cells (karyotype XX) were hybridized at 85° C. for 15 minutes with female chromosome HXR probes labelled with a rhodamine fluor. Cells were washed with wash buffers #1 and #2, and then suspended in a modified mounting solution. The additional compound in the modified mounting solution was varied; as a control, water was used as the additional compound. The signal intensity was observed under the fluorescent microscope.

Hela cells = experiment: Liquid in situ hybridization with flow cytometry, DMSO plus additional compound (Example 4), 28S RNA and NR probes; assay type: cell-based
Source text: A Coulter Profile II flow cytometer was used for flow cytometry. With FITC as the probe dye, the filter for LFL3 was a 635 nm long pass filter and the filter for LFL1 was a 540 bp filter; the excitation wavelength was 488 nm. PMT1 and PMT3 settings were adjusted as required. A typical useful setting when fluorescein is the dye moiety is to have a PMT1 setting of 1100, a PMT3 setting of 900, and color compensation (PMT1, PMT3) of 15 percent.
Liquid in Situ Cell Preparation and Hybridization Protocol
1. Cells were fixed in solution F, then resuspended in 2x SSC.
2. The cells were spun out of solution and resuspended in an assay solution (consisting of the hybridization cocktail HC alone or in combination with a compound or compounds being tested as an enhancer.)
3. After 30 min. at 42° C., the cells were washed in wash solution #1 preheated to 42° C. by centrifuging them out of the assay solution.
4. Cells were next washed in wash solution #2 preheated to 42° C.
5. Cells were resuspended in a 1X PBS solution containing 0.002% trypan blue as a counterstain.
6. Cells were run on a flow cytometer and a "Count vs. LFL1" histogram was generated. ("Count" refers to cell count.) This histogram was used as the basis for determining the mean LFL1.
The effect on probe signal intensity of adding, in addition to DMSO, additional compounds to the assay solution was determined in an in situ liquid hybridization assay. The data was analyzed by flow cytometry.
The Liquid In Situ Cell Preparation and Hybridization Protocol was followed. The cells used were Hela cells. The probes used were a 28S RNA probe (SEQ ID NO: 1) and an NR probe.
The 28S RNA probe (SEQ ID NO: 1) is a target-specific probe specific for ribosomal RNA fluorescence obtained with it represents the sum of fluorescence from target-bound probe, non-specifically bound probe and autofluorescence from cellular molecules. The NR probe (SEQ ID NO: 2) is specific for a plant nucleic acid sequence and, in the current Example, the fluorescence obtained with it represent the sum of fluorescence from non-specifically bound probe and autofluorescence.
In this experiment, the hybridization cocktail consisted of nine volumes of HC-DMSO plus one volume of additional compound. In the control sample, one volume of water replaced the one volume of additional compound. As a result, in all samples, the concentration of DMSO was 9 percent (v/v).
The ratio, 28S/NR, is the ratio of the mean LFL1 observed with the 28S RNA probe (SEQ ID NO: 1) to the mean LFL1 observed with the NR probe (SEQ ID NO: 2). The results in the "28S RNA probe" and "NR probe" columns give the mean LFL1 observed with the 28S RNA and NR probes, respectively (SEQ ID NO: 1 and SEQ ID NO: 2, respectively).

[3] = tested on: WBC cells (white blood cells); experiment: Slide in situ hybridization, effect of DMSO (Example 1), WBC cells, Y probe; assay type: cell-based, human; settings: assay solution HC + 10% DMSO
Source text: (§6) The Y probe (also referred to as the HYR probe) was a collection of oligonucleotides specific for human Y chromosome α-satellite DNA repeated sequences; where the probe was to be detected under a fluorescent microscope, it was labeled at its 5' end, via an Aminolink linker molecule (aminohexyl, from Applied Biosystems, Inc.), to a Texas Red Moiety.
WBC cells (white blood cells) were obtained from a healthy human.
as §1, §2, §3, §4, §5
(§7) 5) Mounting solution (50% glycerol (v/v) in 1×PBS plus the nuclear stain Hoechst, (#33258; 1 ug/ml) was placed on the cells and covered with a coverslip. […]

Amniotic cells = experiment: Slide in situ hybridization, effect of DMSO (Example 1), amniotic cells, Y probe; assay type: cell-based, human; settings: assay solution HC + 10% DMSO
Source text: as §6
Amniotic cells were obtained by standard amniocentesis procedure.
as §1, §2, §3, §4, §5, §7

Hepg2 cells = experiment: Slide in situ hybridization, effect of DMSO (Example 1), Hepg2 cells, Y probe; assay type: cell-based, human; settings: assay solution HC + 10% DMSO
Source text: Hepg2 cells were a human cell line (American Type Culture Collection number, ATCC-HB8065).
In this Example, the slide in situ cell preparation and hybridization protocol was followed.

Row | SMILES | Fluorescent signal (Scale of 1 to 4) (Hepg 2 cells; 10% (v/v) additional compound with 9% DMSO, slide rating x 0.5, water control = 2, average of four experiments) | Effect on signal in an earlier experiment [1] | Signal Intensity Scale of 1 to 4 [2] | 28S RNA Probe, mean LFL1 (Hela cells; 10% additional compound with 9% DMSO, FITC 28S RNA probe, water control 6.070, average of four experiments) | NR Probe, mean LFL1 (Hela cells; 10% additional compound with 9% DMSO, FITC NR probe (non-specific binding and autofluorescence), water control 0.137) | Ratio 28S RNA/NR (ratio of mean LFL1) (Hela cells; 10% additional compound with 9% DMSO, water control 44) | Fluorescent Signal intensity (Scale of 1 to 4) [3] | Cells giving hybridization signal (Hepg 2 cells; DMSO included in in situ assay solution, cells not specified (opening statement of Example 2)) | Fluorescent Signal intensity (Scale of 1 to 4) (Amniotic cells) | Fluorescent Signal intensity (Scale of 1 to 4) (Hepg2 cells) | Optimal DMSO concentration for signal brightness (Hela cells; DMSO alone, nine percent)
1 | CCCCCCCCCCCCO [dodecyl alcohol] | 2 | decrease in signal | 4 | 4.804 | 0.142 | 34 |  |  |  |  | 
2 | C[S+](C)[O-] [DMSO, dimethyl sulfoxide] |  |  |  |  |  |  | 4 | over 95% | 4 | 4 | at or close to the optimal DMSO concentration for signal brightness
